# According to patent US20110020312A1, “METHODS FOR TREATMENT OF METABOLIC DISORDERS USING EPIMETABOLIC SHIFTERS, MULTIDIMENSIONAL INTRACELLULAR MOLECULES, OR ENVIRONMENTAL INFLUENCERS” (priority 2009, published 2011):
# Experiments:
# [1] = test system: HepG2 (liver cancer) cells; test: PCR Apoptosis Array; format: cell-based
# [2] = test system: Pancreatic Cancer Cells (PaCa2); test: Real-time PCR Apoptosis Array; format: cell-based; conditions: 100 uM Q10, various times
# Protocol: Experiments were carried out essentially as described above.
# SKBr3 cells = test: Nexin assay for apoptosis, 24 h Q10; format: cell-based, human; conditions: 50 μM or 100 μM Q10, 24 hours
# Excerpt: The 7AAD dye will enter into cells with permeabilized cell membranes; primarily those cells that are in late apoptosis. Annexin-V-PE is a dye that binds to Phosphotidyl serine, which is exposed on the outer surface of the plasma membrane in early apoptotic cells. The Nexin reagent thus can be used to differentiate between different populations of apoptotic cells in a flow cytometer.
# [3] = test system: Pyruvate Kinase M2 (PKM2); test: Western blot, Pyruvate Kinase M2 levels; format: cell-based, human
# Protocol: The samples were processed and run on a 4-12% Bis-Tris Novex NuPAGE gel as described above. The gels were run, transferred and stained essentially as described above.
# The lactate dehydrogenase blots were stripped by incubating for 30 minutes with methanol, followed by two 10 minute washes with TBS-T, then 30 minutes of incubation with Stripping buffer at 50 deg C., and followed by two washes with 100 ml or more of TBS-T for 30′ each. The 2 blots were scanned in laser scanner to check for complete stripping. The blots were activated with methanol for 5 seconds, washed with water for 5 minutes, and TBST for 15 minutes. The blots were blocked for 1 hour with 5% blocking reagent in TBS-T at room temperature and then washed 3 times with TBS-T (1×-15′; 2×5′ each) and probed with the rabbit polyclonal antibody for Pyruvate Kinase M2 in 5% BSA (NOVUS BIOLOGICALS catalog #H00005315-DO1P) at 1:500 dilution overnight at 4 deg C. with shaking. After the overnight incubation with primary antibody for Pyruvate Kinase M2, the membranes were washed 3 times with TBS-T (1×-15′; 2×5′ each) and probed with the secondary antibody (antirabbit; 1:10,000 dilution) for 1 h on the orbital tilting shaker at room temperature. After 1 h of incubation with secondary antibodies, the blots were washed 3 times with TBS-T (1×-15′; 2×5′ each) and then incubated with ECF reagent for 5 minutes and then each blot scanned with 5100 Fuji Laser scanner at 25 uM resolution, 16 bit, green laser, at 400V and at 500 V.
# The HASMC samples were processed and the gels were run, transferred, stained and scanned essentially as described above.
# The above blots were stripped by incubating for 30 minutes with methanol, followed by two 10 minute washes with TBS-T, then 30 minutes of incubation with Stripping buffer at 50 deg C., and followed by two washes with 100 ml or more of TBS-T for 30′ each. The blots were scanned in laser scanner to check for complete stripping. The blots were activated with methanol for 5 seconds, washed with water for 5 minutes, and TBST for 15 minutes. The blots were blocked for 1 hour with 5% blocking reagent in TBS-T at room temperature and then washed 3 times with TBS-T (1×-15′; 2×5′ each) and probed with the primary antibody for PKM2, SDHB or SDHC in 5% BSA in TBS-T by incubation overnight at 4 deg C. with gentle shaking. The primary antibody for SDHC (ABNOVA H00006391-MO2; antimouse) was at 1:500 dilution. The primary antibody for SDHB was from Abcam ab4714-200; antimouse; at 1:1000 dilution. The primary antibody for Pyruvate Kinase M2 (PKM2) was from Novus Biologicals H00005315-D0IP; antirabbit; at 1:500 dilution. After incubation with primary antibodies, the membranes were washed 3 times with TBS-T (1×-15′; 2×5′ each) and probed with the secondary antibody (SDHB & C antimouse; and PKM2 antirabbit; 1:10,000 dilution) for 1 h on the orbital tilting shaker at room temperature. After 1 h of incubation, the blots were washed 3 times with TBS-T (1×-15′; 2×5′ each) and incubated with ECF reagent for 5 minutes and then each blot scanned with 5100 Fuji Laser scanner at 25 uM resolution, 16 bit, green laser, at 400V and at 500 V.
# melanoma cell = test: Bcl2 level after CoQ-10 in the presence of VEGF; format: cell-based
# [4] = rats, oral; cited from earlier work
# HASMC cells = test: Extracellular acidification rate (ECAR), SeaHorse XF analyzer; format: cell-based, human; conditions: hyperglycemic HASMC cells in hypoxic conditions
# Excerpt: (§1) Environmental influencers (e.g., MIMs or Epi-shifters) may also be identified by changes in cellular energetics. One example of the measurement of cellular energetics are the real-time measures of the consumption of molecular oxygen and/or the change in pH of the media of a cell culture. For example, the ability of a potential epi-shifter to modulate the metabolic state of a cell may be analyzed using, for example, the XF24 Analyzer (Seahorse, Inc.). This technology allows for real time detection of oxygen and pH changes in a monolayer of cells in order to evaluate the bioenergetics of a cell microenvironment. The XF24 Analyzer measures and compares the rates of oxygen consumption (OCR), which is a measure of aerobic metabolism, and extracellular acidification (ECAR), which is a measure of glycolysis, both key indicators of cellular energetics.
# (§2) (SeaHorse Biosciences Inc, North Billerica, Mass.).
# In this experiment, the OCR and extracellular acidification rate (ECAR) in normal cells lines were obtained in the presence and absence of CoQ10 to determine baseline values. It was observed that in its native nutrient environment, the basal OCR rates in normal cells lines are different, and are usually a function of the physiological roles of the cells in the body.
# In Table 52 the measured baseline ECAR values (mpH/min) in HASMC were higher compared to that of HDFa. […]
# HDFa cells = test: Oxygen consumption rate (OCR), SeaHorse XF analyzer; format: cell-based, human; conditions: presence of CoQ10
# Excerpt: as §1, §2
# In this experiment, the OCR and extracellular acidification rate (ECAR) in normal cells lines were obtained in the presence and absence of CoQ10 to determine baseline values. It was observed that in its native nutrient environment, the basal OCR rates in normal cells lines are different, and are usually a function of the physiological roles of the cells in the body. […]
compound,measurement,setting,value
"COC1=C(OC)C(=O)C(C/C=C(\C)CC/C=C(\C)CC/C=C(\C)CC/C=C(\C)CC/C=C(\C)CC/C=C(\C)CC/C=C(\C)CC/C=C(\C)CC/C=C(\C)CCC=C(C)C)=C(C)C1=O [Q10, Coenzyme Q10]",BAG1 mRNA downregulated over control,"[1]; 100 uM Q10, 16 hours",approximately 6 fold
same,CASP9 mRNA upregulated over control,"[1]; 100 uM Q10, 16 hours",approximately 61 fold
same,TNFRSF1A mRNA downregulated over control,"[1]; 100 uM Q10, 16 hours",~4 fold
same,BAG1 mRNA upregulated over control,"[1]; 100 uM Q10, 48 hours",~1 fold
same,CASP9 mRNA upregulated over control,"[1]; 100 uM Q10, 48 hours",approximately 55 fold
same,TNFRSF1A mRNA upregulated over control,"[1]; 100 uM Q10, 48 hours",~1 fold
same,genes modulated by Q10 treatment (Apoptosis arrays),[2],"ABL1, AKT1, Bcl2L1, BclAF1, CASP1, CASP2, CASP6, CIDEA, FADD, LTA, TNF, TNFSF10A and TNFSF10"
same,early and late apoptosis,SKBr3 cells,did not show any significant increases
same,Pyruvate Kinase Muscle form 2 Upper Band Normalized Intensity,"[3]; HASMC, 5g48-50",811
same,Pyruvate Kinase Muscle form 2 Upper Band Normalized Intensity,"[3]; HASMC, 5g48-100",611
same,Pyruvate Kinase Muscle form 2 Upper Band Normalized Intensity,"[3]; HASMC, 22G24-50",477
same,Pyruvate Kinase Muscle form 2 Upper Band Normalized Intensity,"[3]; HASMC, 22G24-100",701
same,Pyruvate Kinase Muscle form 2 Upper Band Normalized Intensity,"[3]; HASMC, 22G48-50",595
same,Pyruvate Kinase Muscle form 2 Upper Band Normalized Intensity,"[3]; HASMC, 22G48-100",496
same,Pyruvate Kinase Muscle form 2 Upper Band Normalized Volume,"[3]; HepG2, 5g-50, 24 h",29269
same,Pyruvate Kinase Muscle form 2 Upper Band Normalized Intensity,"[3]; HepG2, 5g-50, 48 h",303
same,Pyruvate Kinase Muscle form 2 Upper Band Normalized Volume,"[3]; HepG2, 5g-100, 24 h",18307
same,Pyruvate Kinase Muscle form 2 Upper Band Normalized Intensity,"[3]; HepG2, 5g-100, 48 h",354
same,Pyruvate Kinase Muscle form 2 Upper Band Normalized Volume,"[3]; HepG2, 22G-50, 24 h",22294
same,Pyruvate Kinase Muscle form 2 Upper Band Normalized Intensity,"[3]; HepG2, 22G-50, 48 h",562
same,Pyruvate Kinase Muscle form 2 Upper Band Normalized Volume,"[3]; HepG2, 22G-100, 24 h",19560
same,Pyruvate Kinase Muscle form 2 Upper Band Normalized Intensity,"[3]; HepG2, 22G-100, 48 h",601
same,PKM2 expression,[3]; cancer cells tested,dose-dependent decrease
same,PKM2 expression,[3]; normal cells,no major changes
same,level of Bcl2,melanoma cell,decreased level
same,orally-administered CoQ10 absorbed,[4],2-3%
same,ECAR rates,HASMC cells,downward trend
same,OCR,HDFa cells,influenced OCR
